We go through three compounds from ChEMBL document CHEMBL5390204, “Persephacin Is a Broad-Spectrum Antifungal Aureobasidin Metabolite That Overcomes Intrinsic Resistance in Aspergillus fumigatus” (J Nat Prod, 2023).

Experiment [1] deals with Candida albicans. Kind of experiment: Antifungal activity against fluconazole-resistant Candida albicans SC5314 infected in pig cornea assessed as suppression of fungal growth at 2 % administered post fungal infection measured after 4 days by microscopic analysis. The experiment is classed as functional, organism-based. As to conditions: time 4.0 day.
The subject of experiment [2] is Aspergillus fumigatus. Kind of experiment: Antifungal activity against Aspergillus fumigatus NRRL5109 infected in pig cornea assessed as suppression of fungal growth at 2 % administered post fungal infection measured after 4 days by microscopic analysis. Format: functional, organism-based. The following applies: time 4.0 day.
Experiment [3] relates to Aspergillus fumigatus. Kind of experiment: Antifungal activity against Aspergillus fumigatus NRRL5109 infected in pig cornea assessed as suppression of fungal growth at 5 % administered post fungal infection measured after 4 days by microscopic analysis. The following applies: time 4.0 day. Format: functional, organism-based.
Experiment [4] concerns Candida albicans. In words: Antifungal activity against fluconazole-resistant Candida albicans SC5314 infected in pig cornea assessed as suppression of fungal growth at 5 % administered post fungal infection measured after 4 days by microscopic analysis. The experiment is classed as functional, organism-based. The following applies: time 4.0 day.
The subject of experiment [5] is Candida albicans. In words: Antifungal activity against Candida albicans SC5314 infected in pig cornea assessed as suppression of fungal growth at 5 % administered post fungal infection measured after 4 days by microscopic analysis. The experiment is classed as functional, organism-based. The following applies: time 4.0 day.
The test system of experiment [6] is Aspergillus fumigatus. In words: Antifungal activity against Aspergillus fumigatus NRRL6113 assessed as reduction in fungal viability incubated for 48 hrs by microplate reader analysis. The experiment is classed as functional.
The subject of experiment [7] is Aspergillus flavus. Kind of experiment: Antifungal activity against Aspergillus flavus NRRL485 assessed as reduction in fungal growth incubated for 48 hrs by microplate reader analysis. The experiment is classed as functional.
Experiment [8] concerns Fusarium solani. Kind of experiment: Antifungal activity against Fusarium solani 243G2 assessed as reduction in fungal growth incubated for 48 hrs by microplate reader analysis. Format: functional.
For experiment [9], the system named is Candida parapsilosis. In words: Antifungal activity against Candida parapsilosis ATCC 22019 (Y-12969) assessed as reduction in fungal viability incubated for 48 hrs by microplate reader analysis. The experiment is classed as functional.
Experiment [10] has as its system Cryptococcus neoformans. In words: Antifungal activity against Cryptococcus neoformans H99 assessed as reduction in fungal viability incubated for 48 hrs by microplate reader analysis. Format: functional.
Experiment [11] relates to Cryptococcus neoformans. Kind of experiment: Antifungal activity against Cryptococcus neoformans H99 assessed as reduction in fungal growth incubated for 48 hrs by microplate reader analysis. The experiment is classed as functional.
Experiment [12] concerns Mucor circinelloides. Kind of experiment: Antifungal activity against Mucor circinelloides 235C7 assessed as reduction in fungal growth incubated for 48 hrs by microplate reader analysis. The experiment is classed as functional.
For experiment [13], the system named is Candida parapsilosis. Kind of experiment: Antifungal activity against Candida parapsilosis ATCC 22019 (Y-12969) assessed as reduction in fungal growth incubated for 48 hrs by microplate reader analysis. As to conditions: Lodderomyces parapsilosis. The experiment is classed as functional.
Experiment [14] has as its system Aspergillus fumigatus. Kind of experiment: Antifungal activity against Aspergillus fumigatus NRRL5109 assessed as reduction in fungal viability incubated for 48 hrs by microplate reader analysis. Format: functional.
Experiment [15] relates to Pichia kudriavzevii. Kind of experiment: Antifungal activity against Candida krusei ATCC 6258 (Y-7179) assessed as reduction in fungal growth incubated for 48 hrs by microplate reader analysis. The experiment is classed as functional.
The subject of experiment [16] is Mucor circinelloides. In words: Antifungal activity against Mucor circinelloides 235C7 assessed as reduction in fungal viability incubated for 48 hrs by microplate reader analysis. The experiment is classed as functional.
Experiment [17] has as its system Hamigera insecticola. In words: Antifungal activity against Hamigera insecticola NRRL35442 assessed as reduction in fungal growth incubated for 48 hrs by microplate reader analysis. The experiment is classed as functional.
The test system of experiment [18] is Candida albicans. In words: Antifungal activity against Candida albicans SC5314 assessed as reduction in fungal viability incubated for 48 hrs by microplate reader analysis. Format: functional.
For experiment [19], the system named is Candida tropicalis. In words: Antifungal activity against Candida tropicalis ATCC750 (Y-12699) assessed as reduction in fungal viability incubated for 48 hrs by microplate reader analysis. The experiment is classed as functional.
Experiment [20] relates to Pichia kudriavzevii. In words: Antifungal activity against Candida krusei ATCC 6258 (Y-7179) assessed as reduction in fungal viability incubated for 48 hrs by microplate reader analysis. Format: functional.
For experiment [21], the system named is Candida tropicalis. Kind of experiment: Antifungal activity against Candida tropicalis ATCC750 (Y-12699) assessed as reduction in fungal growth incubated for 48 hrs by microplate reader analysis. Format: functional.
For experiment [22], the system named is Rhizopus arrhizus. In words: Antifungal activity against Rhizopus oryzae FGSC 9543 assessed as reduction in fungal growth incubated for 48 hrs by microplate reader analysis. The experiment is classed as functional.
The subject of experiment [23] is Aspergillus niger. In words: Antifungal activity against Aspergillus niger FGSC A732 assessed as reduction in fungal growth incubated for 48 hrs by microplate reader analysis. Format: functional.
For experiment [24], the system named is Candida albicans. In words: Antifungal activity against Candida albicans SC5314 assessed as reduction in fungal growth incubated for 48 hrs by microplate reader analysis. Format: functional.
Experiment [25] has as its system Aspergillus niger. Kind of experiment: Antifungal activity against Aspergillus niger FGSC A732 assessed as reduction in fungal viability incubated for 48 hrs by microplate reader analysis. The experiment is classed as functional.
Experiment [26] has as its system Aspergillus terreus. In words: Antifungal activity against Aspergillus terreus 191A6 assessed as reduction in fungal viability incubated for 48 hrs by microplate reader analysis. The experiment is classed as functional.
Experiment [27] deals with Paecilomyces lilacinus. Kind of experiment: Antifungal activity against Paecilomyces lilacinus 165E10 assessed as reduction in fungal growth incubated for 48 hrs by microplate reader analysis. As to conditions: Purpureocillium lilacinum. The experiment is classed as functional.
Experiment [28] relates to Aspergillus flavus. In words: Antifungal activity against Aspergillus flavus NRRL485 assessed as reduction in fungal viability incubated for 48 hrs by microplate reader analysis. Format: functional.
Experiment [29] concerns Fusarium solani. Kind of experiment: Antifungal activity against Fusarium solani 243G2 assessed as reduction in fungal viability incubated for 48 hrs by microplate reader analysis. Format: functional.
The test system of experiment [30] is Hamigera insecticola. Kind of experiment: Antifungal activity against Hamigera insecticola NRRL35442 assessed as reduction in fungal viability incubated for 48 hrs by microplate reader analysis. The experiment is classed as functional.
Experiment [31] deals with Curvularia lunata. Kind of experiment: Antifungal activity against Curvularia lunata NRRL6409 assessed as reduction in fungal viability incubated for 48 hrs by microplate reader analysis. The experiment is classed as functional.
Experiment [32] has as its system Candida albicans. In words: Antifungal activity against Candida albicans ATCC 10231 assessed as reduction in fungal viability incubated for 48 hrs by microplate reader analysis. The experiment is classed as functional.
Experiment [33] concerns Aspergillus fumigatus. In words: Antifungal activity against Aspergillus fumigatus MYA 3627 assessed as reduction in fungal viability incubated for 48 hrs by microplate reader analysis. Format: functional.
Experiment [34] concerns Rhizopus arrhizus. Kind of experiment: Antifungal activity against Rhizopus oryzae FGSC 9543 assessed as reduction in fungal viability incubated for 48 hrs by microplate reader analysis. Format: functional.
Experiment [35] has as its system Aspergillus fumigatus. In words: Antifungal activity against Aspergillus fumigatus NRRL5109 assessed as reduction in fungal growth incubated for 48 hrs by microplate reader analysis. The experiment is classed as functional.
Experiment [36] relates to Candida albicans. In words: Antifungal activity against Candida albicans ATCC 10231 assessed as reduction in fungal growth incubated for 48 hrs by microplate reader analysis. Format: functional.
In experiment [37] the test system is Aspergillus terreus. In words: Antifungal activity against Aspergillus terreus 191A6 assessed as reduction in fungal growth incubated for 48 hrs by microplate reader analysis. Format: functional.
Experiment [38] deals with Curvularia lunata. In words: Antifungal activity against Curvularia lunata NRRL6409 assessed as reduction in fungal growth incubated for 48 hrs by microplate reader analysis. Format: functional.
For experiment [39], the system named is Paecilomyces lilacinus. In words: Antifungal activity against Paecilomyces lilacinus 165E10 assessed as reduction in fungal viability incubated for 48 hrs by microplate reader analysis. Format: functional, Purpureocillium lilacinum.
Experiment [40] deals with Aspergillus fumigatus. Kind of experiment: Antifungal activity against Aspergillus fumigatus NRRL6113 assessed as reduction in fungal growth incubated for 48 hrs by microplate reader analysis. Format: functional.
The test system of experiment [41] is Aspergillus fumigatus. Kind of experiment: Antifungal activity against Aspergillus fumigatus MYA 3627 assessed as reduction in fungal growth incubated for 48 hrs by microplate reader analysis. The experiment is classed as functional.

≈ marks a conversion by molar mass, not a printed value. Calls of active or inactive are those of the source.

`OC(Cn1cncn1)(Cn1cncn1)c1ccc(F)cc1F`: the outcome in experiment [1] and in [2] was inactive.
Consider `C[C@@H]1C/C=C/C=C/C=C/C=C/[C@H](O[C@@H]2O[C@H](C)[C@@H](O)[C@H](N)[C@@H]2O)C[C@@H]2O[C@](O)(C[C@@H](O)C[C@H]3O[C@@H]3/C=C/C(=O)O1)C[C@H](O)[C@H]2C(=O)O`, for which the outcome in experiment [3], in [4] and in experiment [5] was Active.
In general, MFC refers to the smallest concentration meeting the test's criterion for killing the fungus. Broadly, the MIC80 is an inhibitory concentration at the 80% level, which refers to growth in some studies and to a panel of isolates in others. As for `CCC(C)n1ncn(-c2ccc(N3CCN(c4ccc(OCC5COC(Cn6cncn6)(c6ccc(Cl)cc6Cl)O5)cc4)CC3)cc2)c1=O` (centres undefined) [ITRACONAZOLE], the “MFC<=99.9” value in experiment [6] was over 10 µM; in experiment [9], 5 µM (≈ 3.53 µg/mL); in experiment [10], over 10 µM; in experiment [14], 10 µM (≈ 7.06 µg/mL); in [16], over 10 µM; in [18], over 10 µM. For the same compound, the “MFC<=99.9” value in experiment [19] is over 10 µM; in experiment [20], 2.5 µM (≈ 1.76 µg/mL); in experiment [25], 5 µM (≈ 3.53 µg/mL); in [26] it was 2.5 µM (≈ 1.76 µg/mL); in [28], 0.6 µM (≈ 0.423 µg/mL); in [29], 5 µM (≈ 3.53 µg/mL). In addition, the “MFC<=99.9” value in experiment [30] was 1.35 µM (≈ 0.953 µg/mL); in [31], 5 µM (≈ 3.53 µg/mL); in experiment [32], over 10 µM; in experiment [33], over 10 µM; in experiment [34] it was 0.6 µM (≈ 0.423 µg/mL); in experiment [39] it was 1.3 µM (≈ 0.917 µg/mL). Further, the MFC was 0.6 µM (≈ 0.423 µg/mL) in experiment [7]; 5 µM (≈ 3.53 µg/mL) in experiment [8]; over 10 µM in experiment [11]; over 10 µM in experiment [12]; 5 µM (≈ 3.53 µg/mL) in experiment [13]; 2.5 µM (≈ 1.76 µg/mL) in [15]. The MFC in [17] is 1.35 µM (≈ 0.953 µg/mL); in experiment [21], over 10 µM; in experiment [22], 0.6 µM (≈ 0.423 µg/mL); in experiment [23], 5 µM (≈ 3.53 µg/mL); in [24], over 10 µM; in experiment [27] it was 1.3 µM (≈ 0.917 µg/mL). The MFC in experiment [35] is 10 µM (≈ 7.06 µg/mL); in experiment [36], over 10 µM; in experiment [37], 2.5 µM (≈ 1.76 µg/mL); in [38], 5 µM (≈ 3.53 µg/mL); in [40], over 10 µM; in [41], over 10 µM. Further, the MIC80 was 0.2 µM (≈ 0.141 µg/mL) in experiment [7]; 2.5 µM (≈ 1.76 µg/mL) in experiment [8]; 0.6 µM (≈ 0.423 µg/mL) in [11]; 10 µM (≈ 7.06 µg/mL) in [12]; 0.6 µM (≈ 0.423 µg/mL) in experiment [13]; 0.6 µM (≈ 0.423 µg/mL) in [15]. The MIC80 in experiment [17] was 0.3 µM (≈ 0.212 µg/mL); in experiment [21], 0.6 µM (≈ 0.423 µg/mL); in experiment [22], 0.6 µM (≈ 0.423 µg/mL); in experiment [23], 2.5 µM (≈ 1.76 µg/mL); in experiment [24] it was 0.135 µM (≈ 0.0953 µg/mL); in experiment [27] it was 2.5 µM (≈ 1.76 µg/mL). Moreover, the MIC80 in experiment [35] was 1.3 µM (≈ 0.917 µg/mL); in experiment [36], 0.06 µM (≈ 0.0423 µg/mL); in [37], 0.6 µM (≈ 0.423 µg/mL); in experiment [38], 2.5 µM (≈ 1.76 µg/mL); in experiment [40], 1.3 µM (≈ 0.917 µg/mL); in experiment [41] it was 5 µM (≈ 3.53 µg/mL).
